Experimental data: US9596854B2, “Fungicidal penflufen mixtures” (priority 2010, dated 2017)
Read-outs that look alike come from different tables or passages of the source.

Columns and labels:
Test in all cases: Synergism test: MIC of radial hyphae growth on malt extract/peptone agar, SI by Kull
Assay type in all cases: cell-based
Coniophora puteana = details: Example 8, penflufen/boron oxide, nutrient agar, 26° C
Poria placenta = details: nutrient agar, 26° C
Stereum sanguinolentum = details: nutrient agar, 26° C
Coriolus versicolor = details: for MIC: Trametes versicolor
Gloeophyllum trabeum = test system: Gloeophyllum trabeum
[1] = Example 5, penflufen/DDA propionate
[2] = Example 4, penflufen/DDAC, read-out: MIC Poria placenta
[3] = Example 1, penflufen/IPBC, nutrient agar, 26° C, complete suppression of radial hyphae growth, read-out: MIC against Gloeophyllum trabeum
[4] = Example 9, penflufen/boric acid, nutrient agar, 26° C, read-out: MIC Gloeophyllum trabeum
[5] = Example 3, penflufen/Lonzabac, nutrient agar, 26° C, read-out: MIC against Coriolus versicolor

**Q.** With boron oxide as the compound, how does the “MIC against Coniophora puteana” value (Coniophora puteana) read?
**A.** 100 ppm

**Q.** What does the source list for “didecylmethylpoly(oxyethyl)ammonium Propionate [DDA propionate]”?
**A.** MIC Poria placenta (Poria placenta; [1]): 100.0 ppm; MIC Stereum sanguinolentum (Stereum sanguinolentum; [1]): 30.0 ppm

**Q.** For `CCCCCCCCCC[N+](C)(C)CCCCCCCCCC.[Cl-]` [DDAC, Didecyldimethylammonium Chloride], which MIC (Poria placenta; [2]) is on record?
**A.** 100 µg/mL

**Q.** And the MIC (Coriolus versicolor; read-out: MIC Coriolus versicolor)?
**A.** 60 µg/mL

**Q.** How did the MIC (Gloeophyllum trabeum; [3]) turn out when `Cc1nn(C)c(F)c1C(=O)Nc1ccccc1C(C)CC(C)C` (stereo not drawn) [penflufen] was run?
**A.** 0.3 µg/mL

**Q.** What about the MIC (Gloeophyllum trabeum; [4]) of the same compound?
**A.** 0.3 µg/mL

**Q.** What about the MIC (Gloeophyllum trabeum; Example 11, penflufen/o-phenylphenol, nutrient agar, 26° C, read-out: MIC against Gloeophyllum trabeum) of the same compound?
**A.** 0.7 µg/mL

**Q.** What about the MIC (Poria placenta; Example 2, penflufen/DCOIT, read-out: MIC against Poria placenta) of the same compound?
**A.** 0.3 µg/mL

**Q.** And the MIC (Poria placenta; [2])?
**A.** 0.1 µg/mL

**Q.** What about the MIC (Poria placenta; Example 5, penflufen/DDA propionate, read-out: MIC Poria placenta) of the same compound?
**A.** 0.3 µg/mL

**Q.** And the MIC (Poria placenta; Example 6, penflufen/benzalkonium chloride, read-out: MIC against Poria placenta)?
**A.** 0.3 µg/mL

**Q.** What about the MIC (Poria placenta; Example 7, penflufen/Carboquat, read-out: MIC Poria placenta) of the same compound?
**A.** 0.3 µg/mL

**Q.** And the MIC (Poria placenta; Example 10, penflufen/sodium borate, read-out: MIC against Poria placenta)?
**A.** 0.3 µg/mL

**Q.** What about the “MIC Coriolus versicolor” value (Coriolus versicolor; Example 9, penflufen/boric acid, nutrient agar, 26° C) of the same compound?
**A.** 0.1 ppm

**Q.** And the MIC (Coriolus versicolor; [5])?
**A.** 0.5 µg/mL

**Q.** And the MIC (Coriolus versicolor; Example 4, penflufen/DDAC, nutrient agar, 26° C, read-out: MIC Coriolus versicolor)?
**A.** 0.1 µg/mL

**Q.** And the “MIC Stereum sanguinolentum” value (Stereum sanguinolentum; Example 7, penflufen/Carboquat)?
**A.** 3.0 ppm

**Q.** What about the MIC (Stereum sanguinolentum; Stereum sanguinolentum, Example 5, penflufen/DDA propionate) of the same compound?
**A.** 3 µg/mL

**Q.** And the MIC (Coniophora puteana; Coniophora puteana, read-out: MIC against Coniophora puteana)?
**A.** 0.7 µg/mL

**Q.** `O.O.O.O.O.O.O.O.O.O.[Na+].[Na+].[O-]B1OB2OB([O-])OB(O1)O2` [sodium borate] was tested. Which “MIC against Poria placenta” value (Poria placenta; Example 10, penflufen/sodium borate) did it give?
**A.** 100.0 ppm

**Q.** For `CCCCNC(=O)OCC#CI` [IPBC, 3-Iodo-2-propynyl N-butylcarbamate], which MIC (Gloeophyllum trabeum; [3]) is on record?
**A.** 10 µg/mL

**Q.** For `OB(O)O` [boric acid], which MIC (Gloeophyllum trabeum; [4]) is on record?
**A.** 100 µg/mL

**Q.** What about the MIC (Coriolus versicolor; Example 9, penflufen/boric acid, nutrient agar, 26° C, read-out: MIC Coriolus versicolor) of the same compound?
**A.** 100 µg/mL

**Q.** How did the “MIC against Poria placenta” value (Poria placenta; Example 6, penflufen/benzalkonium chloride) turn out when benzalkonium chloride was run?
**A.** 100.0 ppm

**Q.** For `Oc1ccccc1-c1ccccc1` [o-phenylphenol], which MIC (Gloeophyllum trabeum; read-out: MIC against Gloeophyllum trabeum) is on record?
**A.** 60 µg/mL

**Q.** With `CCCCCCCCCCCCN(CCCN)CCCN` [Lonzabac, N-(3-aminopropyl)-N-dodecyl-1,3-propanediamine] as the compound, how does the MIC (Coriolus versicolor; [5]) read?
**A.** 30 µg/mL
